The PolyMetriX glass transition set
± gives the standard deviation of the reports.

SMILES | glass transition temperature
*CC(*)(F)C(C)=O (repeat unit) | 142.00 °C
*CC(*)(C)C(=O)OCCCCCCCCCCOc1ccc(C#Cc2cc(C)c(/C=C/c3ccncc3)cc2C)cc1 (repeat unit) | 65.40 °C
*CCCCCCOC(=O)C(CCCCP(=O)(OCC)OCC)C(=O)OCCCCCCOc1ccc(-n2on2-c2ccc(O*)cc2)cc1 (repeat unit) | 4.00 °C
*Nc1cc(NC(=O)c2cc(OCCN(C)c3ccc(S(=O)(=O)C(F)(F)C(F)(F)C(F)(F)C(F)(F)C(F)(F)C(F)(F)C(F)(F)C(F)(F)F)cc3)cc(C(*)=O)c2)cc(C(=O)OCCN(C)c2ccc(C#N)cc2)c1 (repeat unit) | 157.00 °C
*N=P(Cl)(N=P(/N=S(/*)Oc1cccc(-c2ccccc2)c1)(Oc1cccc(-c2ccccc2)c1)Oc1cccc(-c2ccccc2)c1)Oc1cccc(-c2ccccc2)c1 (repeat unit) | 32.00 °C
*c1ccc(*)[nH]1 (repeat unit) [Poly(pyrrole)] | 86.42 ± 23 °C
*CC(C)CC(*)(C)C(=O)OC (repeat unit) | 16.00 °C
*Oc1ccc(-c2ccc(Oc3ccc4ccccc4c3-c3c(*)ccc4ccccc34)c3ccccc23)c2ccccc12 (repeat unit) | 301.00 °C
*Oc1ccc(NC(=O)/C=C/c2ccc(/C=C/C(=O)Nc3ccc(*)cc3)cc2)cc1 (repeat unit) | 205.00 °C
*CC(*)(C#N)C(=O)OCC(C)C (repeat unit) | 51.00 °C
*O[Si](C)(C)c1ccc2cc([Si](*)(C)C)ccc2c1 (repeat unit) | 29.00 °C
*CC(*)O[N+](=O)[O-] (repeat unit) | 37.50 °C
*c1ccc2[nH]c(*)nc2c1 (repeat unit) | 398.00 °C
*CCCCCCCCCCOC(=O)c1cccc(C(=O)O*)c1 (repeat unit) | -22.50 °C
*OC(=O)C(C)NC(=O)CCCCCC(=O)NC(C)C(=O)OC1COC2C(*)COC12 (repeat unit) | 45.00 °C
*CCCCOC(=O)/C=C/C(=O)O* (repeat unit) | 93.00 °C
*c1ccc(Cc2ccc(NC(=O)c3ccc(Oc4ccc5c(c4)C(=O)N(*)C5=O)cc3)cc2)cc1 (repeat unit) | 250.00 °C
*c1ccc(Oc2ccc(Sc3ccc(Oc4ccc(-c5nc(*)nc(-c6ccccc6)n5)cc4)cc3)cc2)cc1 (repeat unit) | 211.00 °C

SMILES | glass transition temperature
*C1C2CCC(C2)C1* (repeat unit) | 240.00 °C
*/C=C/C(C)C(*)C(=O)OC (repeat unit) | 53.00 °C
*CC(*)C(=O)OCCOCC(F)(F)F (repeat unit) | -38.00 °C
*CCCCCCCCCCNC(=O)CCCCCCCCCCCCCCC(=O)N* (repeat unit) | 45.00 °C
*CCCCCCOC(=O)OCCCCCCOC(=O)OCCCCCCOc1ccc(C(=O)c2ccc(O*)cc2)cc1 (repeat unit) | -0.30 °C
*CCCCOC(=O)CCCCC(=O)OCCCCOC(=O)c1ccc(C(=O)O*)cc1 (repeat unit) | -20.00 °C
*O[Si](C)(C)O[Si](C)(C)O[SiH](*)O[Si](C)(C)C=C (repeat unit) | -68.00 °C
*C1C(=O)OC(=O)C1C1C2CC(COCCC)C(C2)C1* (repeat unit) | 209.00 °C
*CC(O)COc1c(C)cc(C(C)(C)c2cc(C)c(OCC(O)COc3c(C)cc(S(=O)(=O)c4cc(C)c(O*)c(C)c4)cc3C)c(C)c2)cc1C (repeat unit) | 145.00 °C
*CCN(CCCCCCOc1ccc(/C=C/c2ccc([N+](=O)[O-])cc2)cc1)CCOC(=O)Nc1ccc(C)c(NC(=O)O*)c1 (repeat unit) | 58.50 °C
*c1ccc(Oc2ccccc2Oc2ccc(-n3c(=O)c4cc5c(=O)n(*)c(=O)c5cc4c3=O)cc2)cc1 (repeat unit) | 313.00 °C
*Oc1ccc(CC(NC(=O)CCc2ccc(OC(=O)COCC(*)=O)cc2)C(=O)OC(C)CC)cc1 (repeat unit) | 68.00 °C
*CC(COc1c(Cl)cc(C(C)(C)c2cc(Cl)c(O*)c(Cl)c2)cc1Cl)OC(C)=O (repeat unit) | 100.00 °C
*c1ccc(-n2ccc(-c3cccc(-c4ccn(*)n4)c3)n2)cc1 (repeat unit) | 75.00 °C
*c1ccc(OC(=O)c2ccc(C(=O)Oc3ccc(C4(*)OCc5ccccc54)cc3)cc2)cc1 (repeat unit) | 312.00 °C
*CC(*)C(=O)O (repeat unit) [Poly(acrylic acid)] | 105 ± 7.3 °C
*C(=O)c1ccc2c(c1)C(=O)N(c1cccc(C(=O)c3ccc(C(=O)c4cccc(N5C(=O)c6ccc(*)cc6C5=O)c4)cc3)c1)C2=O (repeat unit) | 240.00 °C

Results, then the molecule that gave them:

glass transition temperature | SMILES
5.00 °C | *CCCCCCOC(=O)NCC(F)(F)C(F)(F)C(F)(F)C(F)(F)CNC(=O)O* (repeat unit)
169.00 °C | *Oc1ccc(NC(=O)c2ccc(Oc3ccc(C(C)(C)c4ccc(C(C)(C)c5ccc(Oc6ccc(C(=O)Nc7ccc(Oc8ccc(C(c9ccc(*)cc9)(C(F)(F)F)C(F)(F)F)cc8)cc7)cc6)cc5)cc4)cc3)cc2)cc1 (repeat unit)
320.00 °C | *c1ccc(Oc2ccc(-c3cc(-c4ccccc4)c4cc(C5(c6ccc7nc(*)cc(-c8ccccc8)c7c6)c6ccccc6C(=O)c6ccccc65)ccc4n3)cc2)cc1 (repeat unit)
295.00 °C | *C(=O)Nc1ccc(-c2cc(-c3ccccc3)cc(-c3ccc(NC(=O)c4ccc5c(c4)C(=O)N(c4ccc(Oc6cccc7c(N8C(=O)c9ccc(*)cc9C8=O)cccc67)cc4)C5=O)cc3)n2)cc1 (repeat unit)
137.00 °C | *CCN(CCOC(=O)Nc1ccc(C)c(NC(=O)O*)c1)c1ccc(/N=N/c2ccc([N+](=O)[O-])cc2C)cc1 (repeat unit)
292.00 °C | *C(=O)c1ccc2c(c1)C(=O)N(c1cccc(Nc3nc(Nc4cccc(N5C(=O)c6ccc(*)cc6C5=O)c4)nc(-c4ccccc4)n3)c1)C2=O (repeat unit)
264.80 °C | *c1ccc2c(c1)C(=O)N(c1cc(Oc3c(C)cc(-c4cc(C)c(Oc5cc(N6C(=O)c7ccc(C(*)(C(F)(F)F)C(F)(F)F)cc7C6=O)cc(C(F)(F)F)c5)c(C)c4)cc3C)cc(C(F)(F)F)c1)C2=O (repeat unit)
218.00 °C | *c1ccc2c(c1)C(=O)N(c1cccc(NC(=O)C(F)(F)C(F)(F)C(F)(F)C(F)(F)C(F)(F)C(F)(F)C(=O)Nc3cccc(N4C(=O)c5ccc(C(*)(C(F)(F)F)C(F)(F)F)cc5C4=O)c3)c1)C2=O (repeat unit)
121.00 ± 7.1 °C | *c1ccc2c3ccc(-c4ccc(-c5ccc(-c6ccc(*)s6)c6nsnc56)s4)cc3n(C(CCCCCCCC)CCCCCCCC)c2c1 (repeat unit)
93.00 °C | *CCCCCCOC(=O)c1cc(OCCCCCCOc2ccc(/N=N/c3ccc(C#N)cc3)cc2)cc(C(=O)OCCCCCCN2C(=O)c3ccc(-c4ccc5c(c4)C(=O)N(*)C5=O)cc3C2=O)c1 (repeat unit)
15.00 °C | *CC(*)C(=O)OCCCCCCCCCOC(=O)c1ccc(OC(=O)c2ccc(C#N)cc2)cc1 (repeat unit)
241.00 °C | *C1CCC(CC2CCC(N3C(=O)C4C5C=CC(C6C(=O)N(*)C(=O)C56)C4C3=O)C(C)C2)CC1C (repeat unit)
405.00 °C | *c1ccc(-c2ccc(-c3c(-c4ccccc4)nc4ccc(-c5ccc6nc(-c7ccccc7)c(*)c(-c7ccccc7)c6c5)cc4c3-c3ccccc3)cc2)cc1 (repeat unit)
116.00 °C | *Cc1ccc(C(C)c2ccc(Cn3c(=O)c4cc5c(=O)n(*)c(=O)c5cc4c3=O)o2)o1 (repeat unit)
224.00 °C | *CCC(=O)Nc1ccc(Oc2cccc(NC(=O)CCN3C(=O)c4ccc(C(=O)c5ccc6c(c5)C(=O)N(*)C6=O)cc4C3=O)c2)cc1 (repeat unit)
334.00 °C | *C(=O)Nc1cc(NC(=O)c2ccc3[nH]c(-c4cc(-c5nc6cc(*)ccc6[nH]5)cc(N5C(=O)c6ccccc6C5=O)c4)nc3c2)cc(-c2nc3ccccc3[nH]2)c1 (repeat unit)
45.00 °C | *CCOc1ccc(C(=O)OC(=O)c2ccc(O*)cc2)cc1 (repeat unit)
-54.00 °C | *O[Si](C)(C)O[Si](C)(C)O[Si](C)(C)O[Si](C)(C)O[Si](C)(C)OC1=C(*)c2cccc3cccc1c23 (repeat unit)
83.50 °C | *c1cc(Br)c(-c2c(Br)cc(N3C(=O)c4ccc(-c5ccc6c(c5)C(=O)N(*)C6=O)cc4C3=O)cc2C(=O)OCCCCCCCCCCCCCCCCCC)c(C(=O)OCCCCCCCCCCCCCCCCCC)c1 (repeat unit)
260.00 °C | *Oc1cc(C(C)(C)C)c(Oc2ccc(C(=O)Nc3c(C)cc(Cc4cc(C)c(NC(=O)c5ccc(*)cc5)c(C(C)C)c4)cc3C(C)C)cc2)cc1C(C)(C)C (repeat unit)
59.00 °C | *Oc1cc(OC(=O)c2ccc(OCCCC)cc2)c(OC(=O)CCCC(*)=O)cc1OC(=O)c1ccc(OCCCC)cc1 (repeat unit)
214.00 °C | *C(=O)Nc1cccc(Oc2cccc(Oc3cccc(NC(=O)c4ccc5c(c4)C(=O)N(c4cccc(Oc6cccc(Oc7cccc(N8C(=O)c9ccc(*)cc9C8=O)c7)c6C#N)c4)C5=O)c3)c2C#N)c1 (repeat unit)
30.00 °C | *CC(CCC)C(CCC)COC(=O)c1ccc(C(=O)O*)cc1 (repeat unit)
328.00 °C | *c1cccc(C(=O)Nc2ccc(NC(=O)c3cccc(N4C(=O)c5ccc(-c6cccc7c6C(=O)N(*)C7=O)cc5C4=O)c3)cc2)c1 (repeat unit)
89.00 °C | *CCCCCCOC(=O)Nc1ccc(NC(=O)OCCCCCCOc2ccc(-c3ccc(O*)cc3)cc2)c(C)c1 (repeat unit)
160.00 °C | *c1ccc(C(=O)Oc2ccc3ccc(OC(=O)c4ccc(N5C(=O)CC(SCCOCCSC6CC(=O)N(*)C6=O)C5=O)cc4)cc3c2)cc1 (repeat unit)
59.00 °C | *c1ccc(C(=O)OCCCCCCCCOc2ccc(/C=C/C(=O)/C=C/c3ccc(OCCCCCCCCOC(=O)c4ccc(-c5nnc(*)o5)cc4)cc3)cc2)cc1 (repeat unit)
